Experimental data: patent publication US9364551B2, “Light-enabled drug delivery” (Virginia Commonwealth University, priority 2011, dated 2016)
Where a name gives a salt, the structure may show the parent alone. Read-outs that look alike come from different tables or passages of the source. Where no end group is shown, it is not given here. [ ]: non-standard residue; d: D form. bis‑iodoacetamido azobenzene = bis-iodoacetamido azobenzene crosslinker; Aib = CC(C)(N)C(=O)O

Columns and labels:
[1] = tested on: JH-EsoAd1 cells; assay: Concentration dependent cell viability (MTT assay); format: cell-based
Experimental: (§1) The Esophageal cancer cell line (JH-EsoAd1) was cultured at 37° C. and in a humidified atmosphere of 5% CO2 in RPMI 1640 medium supplemented with 10% fetal bovine serum (FBS). For 96 well plate experiments, the JH-EsoAd1 cells were seeded at 4450 cells/well in 100 uL of media in 96 well plates; experiments were carried out one day after seeding. MTT assays were analyzed using a Bio-Tex μQuant plate reader at 562 nm. FACS was performed BD FACS Aria II using BD FACS Diva software at the VCU Flow Cytometry Core Facility. A minimum of 20,000 cells within the gated region were analyzed. Confocal microscopy images were acquired at room temperature with a Leica confocal laser scanning microscope.
(§2) JH-EsoAd1 cells were treated with media alone, media supplemented with EDANS (20 μM), or media supplemented with Dox-EDANS (9) (20 μM) in a 96 well clear-bottom, opaque plate. Cells were exposed to light (9 mW/cm^2) for various times (0-40 min) regulated by an aluminum foil mask. During the experiment the plate was kept in ice to reduce the heating by the UV lamp. After the lamp was turned off, the plate was covered with foil and placed at room temperature for an additional 80 min. The media was removed, and the cells were thoroughly washed with media (3×); then 200 μL of fresh media was added to each well. The plates were incubated for 72 hours at 37° C., following which the media was removed and 100 µL of MTT (2 mg/ml) in phosphate buffered saline (PBS) was added to each well. After 3 hours, the MTT solution was removed and replaced with 100 μL of DMSO. The absorbance at 562 nm was analyzed via a plate reader.
JH-EsoAd1 cells were treated with media supplemented with various concentrations of doxorubicin (0-6.4 μM) or Dox-EDANS (9) (0-16 μM) in a 96 well clear-bottom, opaque plate. Control wells were covered with aluminum foil while the remaining wells were exposed UV light (9 mW/cm^2) for 20 min. The plate was kept in ice during light exposure in order to minimize the heating. After irradiation, the plate was kept at it in the dark for another 100 minutes. […]

[2] = tested on: JH-EsoAd1 cells; assay: Illumination time-dependent toxicity (MTT assay); format: cell-based
Experimental: as §1
as §2, with “The plates were incubated for 72 hours at 37° C., following which the media was removed and 100 µL of MTT (2 mg/ml) in phosphate buffered saline (PBS) was added to each well. After 3 hours, the MTT solution was removed and replaced with 100 μL of DMSO.” left out

[3] = tested on: JH-EsoAd1 cells; assay: Confocal microscopic analysis of permeability; format: cell-based; conditions: 10 μM, light-treated cells vs dark
Experimental: as §1
JH-EsoAd1 cells were seeded at 30,000 cells/well on 4 well glass chamber slides, and were treated as above (Flow cytometry analysis). The cells were treated with media alone or media supplemented with 10 μM of EDANS-Dox (6). The plate was placed on ice, and the light treated cells were exposed to UV light (9 mW/cm^2) for 20 minutes. Following the light exposure the plates were kept at room temperature for 100 minutes. The cells were washed extensively with PBS and fixed for 15 min at 37° C. with 3% paraformaldehyde in PBS. Slides were rinsed, dried and mounted under coverslips using Vectashield mounting media (Vector Laboratories, Inc.).

[4] = Photolytic release of doxorubicin from drug conjugate (RP-HPLC); format: physicochemical; conditions: PBS buffer, UV light 365 nm (9.0 mW/cm^2), 0.5-30 min
Experimental: The photolytic release of doxorubicin from the drug conjugate was analyzed using HPLC. The drug conjugate was dissolved in PBS buffer and was exposed to UV light at 365 nm (9.0 mW/cm^2). Aliquots of the reaction mixture were collected at various times and were analyzed on RP-HPLC.
A solution (0.065 mM in 1 mL) of compound 6 in PBS was placed in a 60×15 mm well plastic dish placed on ice. The solution was irradiated and 70 μL was removed at various time points (0.5, 1, 2, 4, 8, 15, 20, and 30 minutes). Each assay was analyzed on RP-HPLC using isocratic elution of 20% organic eluent (0.1% TFA in acetonitrile) for 5 minutes and then using gradient elution from 20% to 70% for 30 minutes and was monitored at λabs=480 nm. (See FIG. 14).

[5] = CD spectra of photoswitching; format: physicochemical
[6] = HPLC monitoring of azobenzene cis to trans thermal relaxation after illumination; format: physicochemical; conditions: fit to exponential decay
Source text: We also monitored the switching of the azobenzene by HPLC, since we were able to separate both the cis and trans peptide isomers (FIG. 19B). After illumination the cis isomer reverted to the trans isomer over time. […] The half-life is in line with measurements of similar peptides, but the % cis is lower than the typical 80-95%. Use of a filter to eliminate the longer wavelength light (our light source has a spike of intensity at 405 nm which can promote cis to trans reversion) would enhance photoswitching upon irradiation.

COc1cccc2c1C(=O)c1c(O)c3c(c(O)c1C2=O)C[C@@](O)(C(=O)CO)C[C@@H]3O[C@H]1C[C@H](N)[C@H](O)[C@H](C)O1 [Dox, Doxorubicin Hydrochloride, reference compound]
IC50 ([1]; Dox alone, read-out: IC50 of Dox alone with the JH-EsoAd1 cells): 1000 ± 400 nM

COc1cc(C(C)OC(=O)NC2C[C@H](OC3C[C@](O)(C(=O)CO)Cc4c(O)c5c(c(O)c43)C(=O)c3c(OC)cccc3C5=O)C[C@@H](C)[C@H]2O)c([N+](=O)[O-])cc1OCCCC(=O)NCc1cn(-c2ccc(C(=O)NCCNc3cccc4c(S(=O)(=O)O)cccc34)cc2)nn1 (stereo partly shown) [EDANS-Dox, Photocaged-Cell Impermeable Dox. Conjugate]
Survival of cells in the dark ([2]; in the dark): equivalent to controls with no drug added
Cell survival with increased illumination ([2]; light 9 mW/cm^2, 0-40 min): decreased survival
Dox fluorescence in the nucleus (confocal) [3]: only light-treated cells show significant Dox fluorescence in the nucleus
photolytic release of doxorubicin [4]: time-depended drug release in the presence of light
IC50 ([1]; 20 min, illumination 365 nm, 9.0 mW/cm^2, 20 min, read-out: IC50, cytotoxicity upon illumination): 1600 ± 1000 nM
toxicity to the cells in the dark ([1]; in the dark, at the highest value tested (16 µM)): not toxic

*CRACARVXAACRAAARQ (RACARV[Aib]AACRAAARQ; linker (positions not given here) via bis‑iodoacetamido azobenzene; not fully specified (N-terminus, bridges); also: bis-iodoacetamido azobenzene crosslink, Cys pair not given here) [Peptide 1, arginine-rich photoswitchable peptide, cysteines crosslinked with bis-iodoacetamido azobenzene; X=2-aminoisobutyric acid]
conformation upon irradiation (CD) ([5]; 370 nm light, 25° C., illumination for 5 min): more α-helical
conformation after removal of light (CD) ([5]; after 30 minutes in the dark): reverted mostly back to the more random coiled state
percentage of cis isomer upon illumination [6]: 55%
